In ChEMBL document CHEMBL6078693, “Move over COVID, Tuberculosis Is Once again the Leading Cause of Death from a Single Infectious Disease” (J Med Chem, 2024):
Values after ≈ are worked out from the molar mass of the structure shown.

Tests used:
[1] = system: Mycobacterium tuberculosis; assay: Antimycobacterial activity against Mycobacterium tuberculosis H37Rv assessed as reduction in bacterial growth incubated for 7 days by resazurin dye based assay; format: functional; conditions: 168 h, time 7 day
[2] = system: Mycobacterium tuberculosis; assay: Antimycobacterial activity against Mycobacterium tuberculosis; format: functional, organism-based

## NC[C@H]1OB(O)c2c(OCCO)ccc(Cl)c21 [GANFEBOROLE]
[1]
  MIC: 0.08 µM (≈ 0.0206 µg/mL)
[2]
  IC50: 200 nM
